# Measured values taken from patent publication US12186361B2, “Method and formulation for inhalation” (Monash University, priority 2011, dated 2025).
# Key:
# [1] = Oxytocin stability: LC/MS assay content recovered after TSI experiments; format: physicochemical; conditions: all TSI stages, capsules and inhalation devices, after spray drying at 70° C. outlet
# Protocol: All five capsules were activated into the same TSI. The used capsules and the inhalers were then washed with Milli-Q water into a 100 mL volumetric flask and made up to volume. This was called the ‘residual’ stage. The parts that made up Stage 1 (parts A, B, C and D) were washed into a 200 mL volumetric flask and the parts that made up Stage 2 (parts E, F, G and H) were washed into a 50 mL volumetric flask with Milli-Q water and called ‘stage 1’ and ‘stage 2’ respectively. The amounts of oxytocin in each stage of the TSI were determined by LC/MS assay. The fine particle fraction (FPF) was calculated as the amount of powder that had reached stage 2 of the TSI apparatus divided by total amount of drug that was assayed. This test was the most important measure as it can determine whether a powder containing oxytocin can be formulated with suitable aerosol deposition, and consequent absorption from the lung.
# Peptides can potentially be denatured due to extreme heat. From the tests that were conducted in this study, the only indication as to oxytocin stability was the LC/MS assay content following the TSI experiments.
# [2] = tested on: uterine contraction (uterine EMG activity); experiment: In vivo uterine EMG activity after oxytocin delivery in post-partum ewes (Example 5); parameters: species or system sheep; conditions: for delay from oxytocin administration to uterine contractile response (first EMG burst): post-partum ewes, n=5, average
# From the text: On day 135 gestational age, pregnant ewes (n=5) were anaesthetised with thiopentone in preparation for surgery. Isuflorane (2.5% in oxygen) was used to maintain anaesthesia and depomycin, procaine penicillin and dihydrostreptomycin were given for pain relief and to reduce the risk of infection. Each ewe was shaved and a 10 cm incision was made in the abdominal skin at the midline below the navel to expose the uterine wall, with care taken to avoid large blood vessels.
# Three sterile stainless steel wires for measuring electromyographical (EMG) activity (0.07 mm diameter, inside a 2 mm catheter) were embedded in the smooth muscle layer of the myometrium surrounding the womb and held there by two stitches. The electrodes were passed through a catheter and out of the ewe via a small incision (2 cm) through the right flank. A catheter was inserted in the right jugular to allow for blood samples and to induce labour. Ewes were returned to metabolic cages and given 3-5 days to recover from surgery.
# Labour was induced with two 5 ml intravenous injections of dexamethasone (consisting of 5 mg of dexamethasone phosphate and 10 mg of dexamethasone phenylpropionate) 24 hours apart. Labour occurred 54±2 hours after the first dexamethasone injection.
# Oxytocin administrations, as detailed above, were performed within 15 hours of delivery. Each sheep received an intra-tracheal dose of dry powder oxytocin formulation, an intra-tracheal instillation of oxytocin in solution and an intramuscular injection of oxytocin. There was at least a one and a half hour washout period between each treatment.
# For intra-tracheal administration, an endoscope was passed through the nasal passage into the trachea and positioned near the first bronchial bifurcation, where either a 1 mL aliquot of oxytocin in solution (10 IU) was released or 10 mg (average) of dry powder was delivered through a modified PennCentury powder delivery device.
# The dry powder formulation comprised a spray dried composition, as described in example 1. This powder contained 13 units of oxytocin per mg by mass, co-spray dried with equal proportions by mass of mannitol, glycine and leucine.
# During this procedure, bronchoscope video images were captured using a Linvatec IM3301 Pal Video Camera attached to an endoscope (Pentax FG-16X), which was saved as a digital file onto a computer using Video Capture Software.
# A cyberamp 380 in conjunction with MACLAB hardware (400 Hz Sample rate) and Chart 4 software (10V Input range) was used to display and record action potential originating from smooth muscle cells within the uterus. The cyberamp 380 used the AI401probe with positive input set at AC and negative input set at Ground. The AC cut off was 10 Hz and the prefilter gain set at 100 mV. The low pass filter was set at 300 Hz, the notch filter set to off, the output gain set to 5 and the total gain left at 500. Two way repeated measure ANOVA was performed to determine the statistical significance of our data.
# [3] = pulmonary versus IM delivery and post-partum activity
compound,measurement,setting,value
CC[C@H](C)[C@@H]1NC(=O)[C@H](Cc2ccc(O)cc2)NC(=O)[C@@H](N)CSSC[C@@H](C(=O)N2CCC[C@H]2C(=O)N[C@@H](CC(C)C)C(=O)NCC(N)=O)NC(=O)[C@H](CC(N)=O)NC(=O)[C@H](CCC(N)=O)NC1=O [oxytocin],oxytocin recovered of the initial capsule's dose,[1],90.23±5.41%
same,total duration of EMG activity,[2]; IM compared to airway delivery and normal post-partum activity,significantly longer
same,delay from oxytocin administration to uterine contractile response (first EMG burst),[2]; IM delivery,approximately 250 seconds
same,delay from oxytocin administration to uterine contractile response (first EMG burst),[2]; pulmonary (intra-tracheal) delivery,faster time of onset
same,length of the initial burst of EMG activity,[2]; [3],No differences
same,number of bursts over the first 30 minutes following the initial burst,[2]; [3],nor was there a difference
